In US9884012B2, “Use of PEDF-derived polypeptides for promoting muscle or tendon regeneration or arteriogenesis” (MacKay Memorial Hospital, priority 2012, dated 2018):
Marks after values point to notes of the source that are not given here.

How the values were obtained:
[1] = system: aortic ring explants; test: rat aortic ring sprouting assay (ex vivo neovessel sprouting); assay type: cell-based; details: day 4, 50 ng/ml PEDF peptide, 50 ng/ml VEGF-A, 20 ng/ml FGF-2, MCDB131, 1% FBS, Matrigel
Experimental: To further confirm the neovessel development promoted by PEDF peptides, rat aortic ring sprouting assay was performed. Thoracic aortas were removed from euthanized rats and gently stripped of peri-aortic fibroadipose tissue. Aortas were sectioned into about 2-mm length rings, which were then embedded in a growth factor-reduced Matrigel. Gels containing the aortic rings were polymerized in 12-well plates incubated at 37° C. for 30 minutes. 1 ml of MCDB131 medium supplemented with 100 units/ml penicillin and […] streptomycin, 1% FBS, and a supplemental agent (50 ng/ml VEGF-A, 20 ng/ml FGF-2, or 50 ng/ml 29-mer, 24-mer, 20-mer, Mo 29-mer, Mo 20-mer, 25-mer, or 18-mer) were added to the Matrigel-containing explants. The cultures were propagated at 37° C. in a humidified incubator for up to 4 days, with media changes every other day. Neovessel sprouting was assessed until day 4 using an inverted microscope platform (Leica) with bright-field optics; representative photographs were provided in FIG. 6. Quantification of neovessel sprouting was assessed using Image-Pro Plus 6.0 software (Dendrites program). The experiment was repeated in triplicate.

[2] = system: tendon stem cells (TSCs); test: TSCs proliferation assay (BrdU labeling) in vitro; assay type: cell-based, New Zealand White rabbits; details: TSCs passage 4; 50 nM peptide, 5% FBS, 24 hours; BrdU pulse-labeling
Experimental: New Zealand White rabbits (6-8 months old, 3.0-4.0 kg) were used in this study. Achilles tendons were removed from the rabbits by cutting through their bony attachments. The tendon sheath was stripped away and the core portion of the tendons was minced into small fragments. Each 100 mg of fragment was then digested in a solution containing 3 mg/mL of type I collagenase and 4 mg/mL of dispase in 1 ml Dulbecco's Modified Eagle Medium (DMEM-high glucose) at 37° C. for 2 hours. The resultant cell suspension was centrifuged at 1,000 rpm for 15 minutes to obtain a cell pellet which was then resuspended in a growth medium consisting of DMEM supplemented with 10% heat inactivated fetal bovine serum (FBS), 100 μM 2-mercaptoethanol, and 100 U/ml penicillin and 100 μg/ml streptomycin. For passage, near-confluent cells were harvested with 0.25% trypsin and then 1×10^5 subcultured cells were further cultured in medium.
The TSCs at passage 4 were seeded at gelatin-coated slide in a 6-well plate at a density of 2×10^5 cells per well and cultured in growth medium (DMEM+10% FBS) for 24 hours before being replaced by a basal growth medium with 5% FBS only (control group) or with 5% FBS plus an additional 50 nM of PEDF-derived peptide (i.e., 29-mer, 24-mer, 20-mer, 18-mer, Mo 29-mer, or Mo 20-mer) for 24 hours. For BrdU labeling assay, BrdU (final concentration, 10 μM) was added to the culture for 4 hours. After fixing with 4% paraformaldehyde, cells were exposed to cold methanol for 2 minutes, and then treated with 1 N HCl at RT for 1 hour before performing immunofluorescence. The phenotype of passage 4 TSC was determined by immunocytochemistry of nucleostemin and type I collagen. Almost all of expanded TSCs were nucleostemin and type I collagen-double positive cells.
It has been reported that during the tendon healing process, tendon stem cells (TSCs) would proliferate and differentiate into tenocytes. To investigate whether present PEDF peptides would induce the proliferation of TSCs in vitro, tendons stem cells were isolated and cultured as described in the “Materials and Methods” section. The purity of TSCs was confirmed by a TSC marker, nucleostemin, as well as the expression of type I collagen by TSCs; together, these analyses indicated a TSC purity of near 100% (data not shown). The proliferation of TSCs was confirmed by BrdU pulse-labeling for 2 hours. Quantitative analysis of the level of BrdU-positive cells was performed as described above, and the results were summarized in Table 8.

[3] = system: ischemic hindlimbs; test: hindlimb ischemia model, laser Doppler perfusion imaging of limb blood perfusion; assay type: in vivo, C57BL/6 wild-type mice
Experimental: (§1) 6-week-old female C57BL/6 wild-type mice were anesthetized by an intraperitoneal injection of a mixture of zoletil (6 mg/kg) and xylazine (3 mg/kg). Hair was removed from the hindquarter with a depilating cream. To establish hindlimb ischemia, unilateral external iliac and femoral arteries and veins were ligated, cut, and excised. After surgery, the mice were randomly assigned to several experimental groups (n=6, each group) and treated as follows. In the blank control group, the mice were treated with 50 μl of blank alginate gel, whereas in the bolus control group, the mice received the bolus formulation containing 29-mer. In the PEDF peptide/alginate gel treatment groups, the mice received 50 μl of the sustained-release formulation, which comprised either 29-mer, 24-mer, or 20-mer. Additionally, in a PEDF 18-mer control group, mice were treated with a sustained-release formulation containing a PEDF 18-mer peptide. Treatments were applied by way of a single intramuscular injection to the gracilis muscle immediately after femoral artery and vein excision operation. The incision was closed after the wound was irrigated with sterile saline.
A laser Doppler perfusion imaging (LDPI) analyzer (Moor Instruments, USA) was used to quantify hindlimb blood perfusion before surgery (pre OP), immediately after surgery (post OP), and over time after surgery. To minimize vasoconstriction by anesthetic heat loss, animals were kept on a heating plate at 37° C. for 5 min before measurement. Representative LDPI images illustrating the blood perfusion of ischemic hindlimbs over a time period of 4 weeks were provided in FIG. 2 in which dark blue color represents low blood flow. Blood perfusion is expressed as LDPI index representing the ratio of operated (ischemic) versus non-operated (non-ischemic) limb blood flow of the same mouse, and the results were summarized in FIG. 3 and Table 1 (n 6).

[4] = system: tibialis anterior muscle; test: hindlimb ischemia model, tibialis anterior muscle necrosis/fibrosis and centrally nucleated fibers; assay type: in vivo, C57BL/6 wild-type mice; details: two weeks after surgery, sustained-release formulation (Bolus: bolus 29-mer)
Experimental: The gracilis, adductor magnus, soleus, and tibialis muscles were fixed in 4% paraformaldehyde, dehydrated with graded ethanol series, and paraffinized. Fixed samples were de-paraffinized in xylene and rehydrated in a graded series of ethanol. Tissues were sliced into 5-μm sections. General histology was performed using H&E dye.
To ascertain the number of centrally nucleated muscle fibers, sections were stained with H&E and then photographed as described above. At least 100 stained fibers were randomly chosen from each photo. Muscle fibers were judged centrally nucleated if one or more nuclei were not located at the periphery of the fiber. The data were expressed as a % of the total number of muscle fibers counted. Results were evaluated from 6 sections per muscle section, and 10 mice at each group.
as §1
In most hindlimb ischemia models, tissue necrosis generally occurs in the muscles below the knee. For example, tibialis anterior muscle, which is distant to the gracilis muscle where the treatment was administered, often undergoes extensive necrosis with regeneration after femoral artery excision. The intensity of Masson's trichrome blue color staining depended on the content of collagen fibers in the investigated tissue, and fibrosis is the result of necrosis. […] Results from representative samples are illustrated in FIGS. 4A and 4B.
Statistical analyses regarding injured area (necrotic area+fibrotic area) and numbers of centrally nucleated fibers were also performed at two weeks after the surgery, and the results were summarized in Table 2. The injured area is expressed as the percent of total stained area (%), and the centrally nucleated fibers is expressed as the total number of muscle fibers counted (%).

[5] = system: adductor magnus muscle arterioles; test: hindlimb ischemia model, arteriole density (α-SMA) in adductor magnus muscle; assay type: in vivo, C57BL/6 wild-type mice; details: two weeks after surgery, sustained-release formulation (Bolus: bolus 29-mer)
Experimental: The small artery densities (α-SMA positive cells surrounding the whole circumference of the vessel) were measured and images were taken from 10 randomly-selected areas of adductor magnus muscle (200× magnification) in each sample, and blinded quantification was performed in triplicate by manually counting within each section; values from five sections were then averaged and expressed as arteriole density per mm^2.
as §1
To investigate the arteriogenic effect of the present sustained-release formulation, adductor magnus muscles (located at the same level as femoral artery excision and in which arteriogenesis responsible for establishing collateral circulation is expected to be found) were harvested from animals in each experimental condition, two weeks after the surgery. Arterioles in muscle cross sections were identified by immunohistological staining for vascular smooth muscle cells (α-SMA; brown), and nuclei were labeled with hematoxylin; representative photographs were provided in FIG. 5. Quantitative analysis was also performed and the results were summarized in Table 3, and the data were expressed as α-SMA-positive arterioles per mm^2 in the peri-injury region.

[6] = system: aortic ring explants; test: rat aortic ring sprouting assay (ex vivo neovessel sprouting); assay type: cell-based; details: aortic rings cultured with PEDF peptide, in words

SLGAEHRTESVIHRALYYDL [Mo 20-mer, synthetic peptide derived from mouse PEDF]
Neovessel Sprouting Fold [1]: 6.4* fold of untreated aortic ring | BrdU Labeling Index (%) [2]: 31.8 ± 3.1 %

EQRTESIIHRALYYDLIS [18-mer, control PEDF peptide without the SLGA residues, reference compound]
Ischemic/Non-ischemic Perfusion Ratio (%) 7 days ([3]; 7 days after surgery, 50 μl sustained-release alginate gel formulation, 10 μM peptide (Bolus: bolus formulation of 29-mer), single intramuscular injection to gracilis muscle): 23.8 ± 4.5% | Ischemic/Non-ischemic Perfusion Ratio (%) 14 days ([3]; 14 days after surgery, sustained-release formulation (Bolus: bolus 29-mer), single intramuscular injection): 30.3 ± 0.94% | Ischemic/Non-ischemic Perfusion Ratio (%) 21 days ([3]; 21 days after surgery, sustained-release formulation (Bolus: bolus 29-mer), single intramuscular injection): 46.8 ± 4.3% | Ischemic/Non-ischemic Perfusion Ratio (%) 28 days ([3]; 28 days (four weeks) after surgery, sustained-release formulation (Bolus: bolus 29-mer), single intramuscular injection): 52.8 ± 7.4% | Ischemic/Non-ischemic Perfusion Ratio (%) Pre OP ([3]; before surgery (baseline), LDPI): 104.5 ± 2.5% | Ischemic/Non-ischemic Perfusion Ratio (%) Post OP ([3]; immediately after surgery, LDPI): 7.5 ± 0.67% | blood perfusion as compared with blank control ([3]; over 4 weeks after surgery, in words): did not exhibit improved blood perfusion | Centrally nucleated fibers (%) [4]: 20.5 ± 3.3% | Injured Area (%) (necrotic area + fibrotic area, percent of total stained area) [4]: 78.5 ± 5.1% | Arteriole Density per mm^2 (α-SMA-positive arterioles) [5]: 4.0 ± 0.58 per mm^2 | neovessel phenotype by dual immunofluorescence (α-SMA / isolectin B4) [6]: barely detected

SLGAEHRTESVIHRALYYDLITNPDIHST [Mo 29-mer, synthetic peptide derived from mouse PEDF]
Neovessel Sprouting Fold [1]: 6.1* fold of untreated aortic ring | BrdU Labeling Index (%) [2]: 33.2 ± 6.6 %

FGF2: well-known angiogenic factor used as positive control, 20 ng/ml [reference compound]
Neovessel Sprouting Fold [1]: 3.5* fold of untreated aortic ring | Neovessel Sprouting Fold ([1]; listed as FGF-2): ~3.5 fold of untreated aortic ring
